Reference: patent US12428681B2, “Markers of totipotency and methods of use” (AGENCY FOR SCIENCE, TECHNOLOGY AND RESEARCH, priority 2017, dated 2025)

Columns and labels:
Assay type in all cases: cell-based, mouse
[1] = test system: NELFA-Strep-HA-P2A-EGFP mESCs; assay: Flow cytometry of NELFA^high subpopulation in NELFA reporter mESCs
Procedure: (§1) Unless otherwise stated, all mESC lines were cultured in serum-containing ESC medium containing Knockout DMEM, 15% FCS, L-Glutamine, non-essential amino acids, penicillin/streptomycin, 2-mercaptoethanol and supplemented with LIF, 1 μM PD0325901 and 3 µM CHIR99021 (2i′). For serum-free ‘naïve’ culture condition, mESCs were grown in N2B27 medium supplemented with LIF and 2i. For 2-DG experiments, ESCs were grown in serum-containing ESC medium with 4 mM 2-DG (Sigma; D8375) for up to 4 days. For MYC inhibitor treatment, ESCs were grown in serum-containing ESC medium with […] MYC inhibitor, 10058-F4 (Abcam), for 3 days.
Mouse ES cells are grown in standard culture medium containing 4 mM of 2-DG inhibitor for 4 days, at 37° C. with 5% CO2. Culture medium containing 2-DG is changed every day during the induction. […] In a second system, where NELFA is under the control of a Dox inducible promoter, the expression is induced by culturing the ES cells with culture medium containing 0.4 μg/mL of Doxycycline for 16 hours at 37° C. with 5% CO2.
For NELFA-StrepHA-P2A-EGFP reporter ESC line, a donor vector harboring a Strep-HA-P2A-EGFP cassette flanked by NELFA left and right homology arms (826 bp and 924 bp respectively) was co-transfected with the CRISPR-Cas9 sgRNA cloning vector, pX458, containing the Nelfa sgRNA sequence ([…])(SEQ ID NO: 1). Positive transfectants were GFP-sorted and targeted single clones validated by genotyping.
FACSAria Cell Sorter (BD Biosciences) was used to quantify the proportion of EGFPpositive and EGFP-negative cells from the reporter mESC lines. The Moflow sorter was used to sort EGFP-positive and EGFP-negative cells for RNA-seq and NoME-seq studies.

NELFA reporter mESCs [2] = assay: RNA-seq transcriptomic profiling of unsorted 2-DG-treated NELFA reporter mESCs; details: adjusted p-value≤0.01 and fold-change≥2
Procedure: as §1, with “3 days. […]” for “3 days.”
Single- and Paired-end raw sequencing reads were trimmed with Trim Galore (v0.4.2_dev; www.bioinformatics.babraham.ac.uk/projects/trim_galore/) with parameters: --trim-n (single-end, NELFA reporter mESCs) or -paired (paired-end, Doxinducible NELFA-EGFP and 2DG-treated NELFA reporter mESCs). Cleaned reads were then mapped to the mouse GRCm38 reference genome, guided by the vM9 gene model from the GENCODE project using the RSEM pipeline (v1.1.11). […] Reads mapping and quantification of individual repetitive element expression were carried out by using the RepEnrich pipeline, which takes a two-step approach. Briefly, reads were mapped to the mouse genome (mm10) by Bowtie (v1.1.2), and separated into multiple-mapped and uniquely mapped reads. […]

NELFA reporter mESCs [3] = assay: Immunofluorescence for 2C-like markers and H1-mCherry in NELFA reporter mESCs
Procedure: as §1
For generation of histone H1-mCherry stable mESCs, mouse H1e-mCherry fusion DNA sequence was ordered as a Gblock from IDT, amplified and inserted into the expression plasmid, pCAG-IRES-hygromycin. The pCAG-H1-mCherry-IRES-hygromycin plasmid was linearized with FspI and transfected into both NELFA-StrepHA-P2A-EGFP reporter mESCs and Dox-inducible pTRE-NELFA-StrepHA mESCs. Transfected cells were selected with hygromycin B (150 μg/ml) for 4 days before single colony sub-cloning.
Briefly mESCs were grown on gelatin-coated imaging dishes, fixed in 4% PFA for 10 min at room temperature, permeabilized and blocked in 0.1% TRITON™ X-100/1% BSA for 30 min. Cells were incubated in primary antibodies overnight at 4° C. followed by three washes in blocking buffer. […]

mESCs = assay: RT-qPCR of 2C-relevant genes in mESCs; details: 2-DG stimulation alone
Procedure: Unless otherwise stated, all mESC lines were cultured in serum-containing ESC medium containing Knockout DMEM, 15% FCS, L-Glutamine, non-essential amino acids, penicillin/streptomycin, 2-mercaptoethanol and supplemented with LIF, 1 μM PD0325901 and 3 µM CHIR99021 (2i′). For serum-free ‘naïve’ culture condition, mESCs were grown in N2B27 medium supplemented with LIF and 2i. For 2-DG experiments, ESCs were grown in serum-containing ESC medium with 4 mM 2-DG (Sigma; D8375) for up to 4 days. For MYC inhibitor treatment, ESCs were grown in serum-containing ESC medium with […] MYC inhibitor, 10058-F4 (Abcam), for 3 days. siRNAs were purchased from GE Dharmacon and Qiagen and transfected into mESCs using Lipofectamine RNAiMAX according to manufacturer's instructions. Both forward and reverse transfections were carried out. The final concentration of siRNA used was 40 nM per transfection and the effect of knockdown analyzed at 72 h. 0.5-1 μg of total RNA was used as input for cDNA preparation with the SensiFAST cDNA synthesis kit (Bioline; 65054). Reverse transcription was carried out with standard cycling condition as per manufacturer's instructions. […] Relative gene expression fold change was calculated using the delta delta CT method and statistical significance was assessed using a student's T-test.

| SMILES | increase in the NELFA^high subpopulation following 2-DG treatment ([1]; NELFA reporter mESCs, conventional culture conditions, 4 mM 2-DG, 4 days) | change in Nelfa^high ESC subpopulation (in words) ([1]; addition of 2-DG to Nelfa reporter ESCs) | number of genes upregulated after 2-DG treatment (NELFA reporter mESCs [2]) [genes] | expression of MERVL family of retrotransposons and Zscan4 by immunofluorescence (NELFA reporter mESCs [3]; 2-DG-treated NELFA-positive mESCs) | H1 localization on heterochromatin in NELFA^high mESCs (NELFA reporter mESCs [3]; NELFA-EGFP reporter mESCs stably expressing H1-mCherry, following 2-DG treatment) | induction of Gata3 by RT-qPCR (mESCs) | change in NELFA^high population (in words) ([1]; NELFA reporter mESCs, 64 µM MYC inhibitor 10058-F4, 3 days) |
| --- | --- | --- | --- | --- | --- | --- | --- |
| O=CC[C@@H](O)[C@H](O)[C@H](O)CO [2-DG, 2-deoxy-D-glucose] | up to 8 fold | prominent increase | 175 | upregulation | clear displacement | not observed | – |
| CCc1ccc(/C=C2/SC(=S)NC2=O)cc1 [10058-F4] | – | – | – | – | – | – | no increase |
